Measurements published in BindingDB's records for patent US20250051327 (Exscientia AI, 2025).

These molecules were tested against T1, Mucosa-associated lymphoid tissue lymphoma translocation protein 1 (Homo sapiens, UniProt Q9UDY8) (assay: MALT-1 Inhibition Assay).
T1 sequence (Q9UDY8 whole entry): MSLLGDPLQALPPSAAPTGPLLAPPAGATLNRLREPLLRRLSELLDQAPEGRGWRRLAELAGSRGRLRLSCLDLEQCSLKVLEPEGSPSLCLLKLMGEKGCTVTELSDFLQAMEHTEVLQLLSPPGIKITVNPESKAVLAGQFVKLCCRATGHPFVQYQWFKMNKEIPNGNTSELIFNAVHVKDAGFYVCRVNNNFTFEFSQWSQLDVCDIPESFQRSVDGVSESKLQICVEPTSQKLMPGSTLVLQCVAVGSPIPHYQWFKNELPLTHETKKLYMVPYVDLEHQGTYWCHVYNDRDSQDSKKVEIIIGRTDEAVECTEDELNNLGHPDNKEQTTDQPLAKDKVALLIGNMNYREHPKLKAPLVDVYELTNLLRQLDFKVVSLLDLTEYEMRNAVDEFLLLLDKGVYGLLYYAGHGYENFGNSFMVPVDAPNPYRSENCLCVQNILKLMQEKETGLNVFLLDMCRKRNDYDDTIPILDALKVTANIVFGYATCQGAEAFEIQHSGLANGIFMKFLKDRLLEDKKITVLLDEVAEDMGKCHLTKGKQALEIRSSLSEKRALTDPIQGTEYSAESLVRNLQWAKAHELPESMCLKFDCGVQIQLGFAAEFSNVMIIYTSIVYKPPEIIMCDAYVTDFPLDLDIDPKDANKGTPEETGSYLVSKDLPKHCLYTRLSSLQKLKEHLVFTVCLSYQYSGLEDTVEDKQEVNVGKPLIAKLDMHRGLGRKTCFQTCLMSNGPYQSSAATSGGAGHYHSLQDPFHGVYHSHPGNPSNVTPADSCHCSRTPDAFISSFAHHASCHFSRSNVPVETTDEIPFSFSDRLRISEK
Experimental: MALT-1 paracaspase activity was measured using the fluorogenic substrate Ac-LRSR-Rh110-DP (purchased from Biosantan GmbH). Proteolytic cleavage of the peptide—rhodamine conjugate results in an increase of rhodamine fluorescence which is inhibited by test compounds. Test compounds were diluted in DMSO in a series of 10 semi-log step doses, 15 nL of each compound dose were dispensed in 384 well polypropylene plates (HiBase non-binding, Greiner Bio-One cat #784900). All other assay components were diluted to appropriate working concentrations in assay buffer composed of: 200 mM Tris-HCl (pH 7.5; Sigma-Aldrich cat #T2663-1L), 0.1 mM EGTA (Sigma-Aldrich cat #E3889-10G), 0.05% CHAPS—Sigma-Aldrich cat #C9426-1G), 1 mM TCEP (Sigma-Aldrich cat #646547-10×1 mL), 0.8 M sodium citrate (Sigma-Aldrich cat #S1804-500G). Recombinant human MALT-1 (amino acids 340-824, accession NP_006776.1) was added to compound doses and equilibrated for 40 minutes at rt. The reaction was initiated by addition of substrate. Final concentrations of MALT-1 and substrate were 3 nM and 10 μM respectively. Reactions were incubated in the dark for 60 minutes at 25° C. Fluorescence was measured in a PHERAstar FSX plate reader (BMG LABTECH) with optical setup for excitation at 485 nm and emission at 520 nm, focal height of 11.8 mm, 20 flashes, gain 300. Percent inhibition values were calculated from relative fluorescence units at different doses and fitted to a 4-parameter logistic curve to determine IC50 values.

Question: For `COc1ccc2ncc(Nc3ccc([C@H](N(C)C(=O)C4CCS(=O)(=O)CC4)C(F)(F)F)cn3)c([C@@H](C)OC)c2n1` (relative stereo) [US20250051327, Reference CPD0019006], which IC50 is on record?
Answer: Its IC50 is 139 nM.

Question: `COc1ccc2ncc(Nc3ccc([C@H](N(C)C(=O)C4CCS(=O)(=O)CC4)C(F)(F)F)cc3)c([C@H](C)OC)c2n1` (relative stereo) [US20250051327, Reference CPD0019170] was tested. Which IC50 did it give?
Answer: The IC50 was 65 nM.

Question: With `COc1ccc2ncc(Nc3ccc([C@H](N(C)C(=O)C4CCS(=O)(=O)CC4)C(F)(F)F)cc3)c([C@@H](C)OC)c2n1` (relative stereo) [US20250051327, Reference CPD0019171] as the molecule, how does the IC50 read?
Answer: The IC50 was 196 nM.

Question: For `COc1ccc2ncc(Nc3ccc([C@H](N(C)C(=O)[C@H]4CC[S@@+]([O-])CC4)C(F)(F)F)cc3)c([C@H](C)OC)c2n1` (relative stereo) [US20250051327, Reference CPD0072935], which IC50 is on record?
Answer: Its IC50 is 75 nM.

Question: With `COc1ccc2ncc(Nc3ccc([C@H](N(C)C(=O)[C@H]4CC[S@+]([O-])CC4)C(F)(F)F)cc3)c([C@H](C)OC)c2n1` (relative stereo) [US20250051327, Reference CPD0072936] as the molecule, how does the IC50 read?
Answer: The IC50 was 68 nM.

Question: `COc1ccc2ncc(Nc3ccc([C@H](N(C)C(=O)C4CCS(=O)(=O)CC4)C(F)(F)F)cc3)c([C@H]3CCCO3)c2n1` (relative stereo) [US20250051327, Reference CPD0074043] was tested. Which IC50 did it give?
Answer: Its IC50 is 107 nM.

Question: `COc1ccc2ncc(Nc3ccc([C@H](N(C)C(=O)C4CCS(=O)(=O)CC4)C(F)(F)F)cc3)c([C@@H]3CCCO3)c2n1` (relative stereo) [US20250051327, Reference CPD0074044] was tested. Which IC50 did it give?
Answer: The IC50 was 218 nM.

Question: How did the IC50 turn out when `COc1ccc2ncc(Nc3ccc([C@H](N(C)C(=O)[C@@H]4CNC(=O)C4)C(F)(F)F)cc3)c([C@H](C)OC)c2n1` (relative stereo) [US20250051327, Reference CPD0074550] was run?
Answer: Its IC50 is 81 nM.

Question: For `C[C@H]1CCN(c2ccc([C@H](N(C)C(=O)[C@H]3CC[S@](=N)(=O)CC3)C(F)(F)F)cc2)c2cnc3cc(F)nn3c21` (relative stereo) [US20250051327, Reference CPD0074553], which IC50 is on record?
Answer: The IC50 was 39 nM.

Question: `C[C@H]1CCN(c2ccc([C@H](N(C)C(=O)[C@H]3CC[S@@](=N)(=O)CC3)C(F)(F)F)cc2)c2cnc3cc(F)nn3c21` (relative stereo) [US20250051327, Reference CPD0074554] was tested. Which IC50 did it give?
Answer: Its IC50 is 44 nM.

Question: For `COc1ccc2ncc(Nc3ccc([C@H](N(C)C(=O)C4CCN(C(C)=O)CC4)C(F)(F)F)cc3)c([C@H](C)OC)c2n1` (relative stereo) [US20250051327, Reference CPD0074559], which IC50 is on record?
Answer: The IC50 was 153 nM.

Question: With `COc1ccc2ncc(Nc3ccc([C@H](N(C)C(=O)[C@H]4CNC(=O)C4)C(F)(F)F)cc3)c([C@H](C)OC)c2n1` (relative stereo) [US20250051327, Reference CPD0074562] as the molecule, how does the IC50 read?
Answer: Its IC50 is 79 nM.

Question: `COc1ccc2ncc(Nc3ccc([C@H](N(C)C(=O)[C@@H]4CCC(=O)N4)C(F)(F)F)cc3)c([C@H](C)OC)c2n1` (relative stereo) [US20250051327, Reference CPD0075580] was tested. Which IC50 did it give?
Answer: The IC50 was 47 nM.

Question: With `COc1ccc2ncc(Nc3ccc([C@H](N(C)C(=O)[C@H]4CCC(=O)N4)C(F)(F)F)cc3)c([C@H](C)OC)c2n1` (relative stereo) [US20250051327, Reference CPD0075581] as the molecule, how does the IC50 read?
Answer: The IC50 was 37 nM.

Question: `CO[C@@H](C)c1c(Nc2ccc([C@H](N(C)C(=O)[C@H]3CNC(=O)C3)C(F)(F)F)cc2)cnn2cc(Cl)nc12` (relative stereo) [US20250051327, Reference CPD0082467] was tested. Which IC50 did it give?
Answer: The IC50 was 42 nM.

Question: How did the IC50 turn out when `CO[C@@H](C)c1c(Nc2ccc([C@H](N(C)C(=O)[C@H]3CCC(=O)NC3)C(F)(F)F)cc2)cnn2cc(Cl)nc12` (relative stereo) [US20250051327, Reference CPD0082471] was run?
Answer: The IC50 was 37 nM.

Question: `CO[C@@H](C)c1c(Nc2ccc([C@H](N(C)C(=O)[C@@H]3CCC(=O)NC3)C(F)(F)F)cc2)cnn2cc(Cl)nc12` (relative stereo) [US20250051327, Reference CPD0082472] was tested. Which IC50 did it give?
Answer: The IC50 was 41 nM.

Question: How did the IC50 turn out when `COc1ccc2ncc(Nc3ccc([C@H](N(C)C(=O)[C@H]4CNC(=O)C4)C(F)(F)F)cc3)c([C@@H]3CCOC3)c2n1` (relative stereo) [US20250051327, Reference CPD0082477] was run?
Answer: Its IC50 is 41 nM.

Question: Which IC50 does the source give for `CO[C@@H](C)c1c(Nc2ccc([C@H](N(C)C(=O)[C@H]3CCN(C(=O)CO)C3)C(F)(F)F)cc2)cnn2cc(Cl)nc12` (relative stereo) [US20250051327, Reference CPD0084139] here?
Answer: The IC50 was 52 nM.

Question: For `CO[C@@H](C)c1c(Nc2ccc([C@H](N(C)C(=O)[C@@H]3CCN(C(=O)CO)C3)C(F)(F)F)cc2)cnn2cc(Cl)nc12` (relative stereo) [US20250051327, Reference CPD0084140], which IC50 is on record?
Answer: The IC50 was 45 nM.

Question: For `COc1ccc2ncc(Nc3ccc([C@H](N(C)C(=O)[C@H]4CNC(=O)C4)C(F)(F)F)cc3)c([C@H]3CCOC3)c2n1` (relative stereo) [US20250051327, Reference CPD0084143], which IC50 is on record?
Answer: The IC50 was 72 nM.

Question: `COc1ccc2ncc(Nc3ccc([C@H](N(C)C(=O)[C@@H]4CNC(=O)C4)C(F)(F)F)cc3)c([C@H]3CCOC3)c2n1` (relative stereo) [US20250051327, Reference CPD0084144] was tested. Which IC50 did it give?
Answer: The IC50 was 76 nM.

Question: Which IC50 does the source give for `COc1ccc2ncc(Nc3ccc([C@H](N(C)C(=O)C4CCS(=O)(=O)CC4)C(F)(F)F)cn3)c(C(C)OC)c2n1` (stereo partly specified) [US20250051327, Reference CPD0019007] here?
Answer: The IC50 was 242 nM.

Question: With `COc1ccc2ccc(Nc3ccc([C@H](N(C)C(=O)C4CCS(=O)(=O)CC4)C(F)(F)F)cc3)cc2n1` [US20250051327, Reference CPD0019078] as the molecule, how does the IC50 read?
Answer: The IC50 was 182 nM.

Question: `CN(C(=O)C1CCS(=O)(=O)CC1)[C@@H](c1ccc(N2CCCc3c2cnc2cc(Cl)nn32)nc1)C(F)(F)F` [US20250051327, Reference CPD0019212] was tested. Which IC50 did it give?
Answer: Its IC50 is 313 nM.

Question: With `CN(C(=O)C1CCS(=O)(=O)CC1)[C@@H](c1ccc(N2CCC3(CC3)c3c2cnc2cc(Cl)nn32)cc1)C(F)(F)F` [US20250051327, Reference CPD0019590] as the molecule, how does the IC50 read?
Answer: Its IC50 is 64 nM.

Question: `CN(C(=O)C1CCS(=O)(=O)CC1)[C@@H](c1ccc(N2CCC3(CC3)c3c2cnc2cc(Cl)nn32)nc1)C(F)(F)F` [US20250051327, Reference CPD0021660] was tested. Which IC50 did it give?
Answer: The IC50 was 87 nM.

Question: For `COC[C@@]1(C)CCN(c2ccc([C@H](N(C)C(=O)C3CCS(=O)(=O)CC3)C(F)(F)F)cc2)c2cnc3cc(Cl)nn3c21` [US20250051327, Reference CPD0073139], which IC50 is on record?
Answer: Its IC50 is 112 nM.

Question: Which IC50 does the source give for `COC[C@]1(C)CCN(c2ccc([C@H](N(C)C(=O)C3CCS(=O)(=O)CC3)C(F)(F)F)cc2)c2cnc3cc(Cl)nn3c21` [US20250051327, Reference CPD0073140] here?
Answer: The IC50 was 92 nM.

Question: For `CN(C(=O)[C@@H]1CCN(C(=O)CC#N)C1)[C@@H](c1ccc(N2CCCc3c2cnc2cc(Cl)nn32)cc1)C(F)(F)F` [US20250051327, Reference CPD0073190], which IC50 is on record?
Answer: Its IC50 is 114 nM.

Question: Which IC50 does the source give for `CN(C(=O)[C@H]1CCN(C(=O)CC#N)C1)[C@@H](c1ccc(N2CCCc3c2cnc2cc(Cl)nn32)cc1)C(F)(F)F` [US20250051327, Reference CPD0073191] here?
Answer: Its IC50 is 96 nM.

Question: For `CN(C(=O)[C@H]1C[C@@H]([S@@+](C)(=N)[O-])C1)[C@@H](c1ccc(N2CCCc3c2cnc2cc(Cl)nn32)cc1)C(F)(F)F` [US20250051327, Reference CPD0073223], which IC50 is on record?
Answer: Its IC50 is 57 nM.

Question: For `CN(C(=O)[C@H]1CC[S@](=N)(=O)CC1)[C@@H](c1ccc(N2CC(C)(C)Cc3c2cnc2cc(Cl)nn32)cc1)C(F)(F)F` [US20250051327, Reference CPD0073497], which IC50 is on record?
Answer: Its IC50 is 52 nM.

Question: `CN(C(=O)[C@H]1CC[S@@](=N)(=O)CC1)[C@@H](c1ccc(N2CC(C)(C)Cc3c2cnc2cc(Cl)nn32)cc1)C(F)(F)F` [US20250051327, Reference CPD0073498] was tested. Which IC50 did it give?
Answer: The IC50 was 53 nM.

Question: For `COC[C@@H]1CCN(c2ccc([C@H](N(C)C(=O)C3CCS(=O)(=O)CC3)C(F)(F)F)cc2)c2cnc3cc(Cl)nn3c21` [US20250051327, Reference CPD0073503], which IC50 is on record?
Answer: Its IC50 is 115 nM.

Question: For `O=C(CC1CS(=O)(=O)C1)N[C@@H](c1ccc(N2CCCc3c2cnc2cc(Cl)nn32)cc1)C(F)(F)F` [US20250051327, Reference CPD0073535], which IC50 is on record?
Answer: The IC50 was 403 nM.
